# Laboratory results: article PMC11432330, “Novel Drug-like HsrA Inhibitors Exhibit Potent Narrow-Spectrum Antimicrobial Activities against Helicobacter pylori” (International Journal of Molecular Sciences, 2024)
# Tested on: H. pylori 26695
# Test: In vivo inhibition of HsrA: RNA-Seq transcriptomic analysis of exposed cells
# Assay type: cell-based, Helicobacter pylori
# Conditions: for log2 Fold Change: exposed to lethal concentrations vs control
# Description: Bacterial growth from three blood agar plates of H. pylori ATCC 700392 (aka 26695) incubated for 48 h at 37 °C under microaerobic conditions was aseptically resuspended in BHI + FBS and adjusted to 10^7 CFU/mL. BHI broth cultures were incubated microaerobically at 37 °C for 24 h. […] At this time, bacterial growth was stopped by adding 1.5 mL ice-cold RNA stop solution (95% absolute ethanol, 5% acid-buffered phenol) and subsequently incubated on ice. Control samples were exposed to the same amount of DMSO instead of the inhibitor. Helicobacter cells from all samples were harvested by centrifugation (4000 rpm at 4 °C for 10 min), then the pellets were quickly frozen by immersion in liquid nitrogen and stored at −80 °C.
# RNA-Seq analysis was performed by GENEWIZ (Azenta Life Sciences, Leipzig, Germany). Frozen cell pellets from two biological replicates of each treatment condition were properly submitted to GENEWIZ in dry ice. RNA-Seq libraries were prepared according to standard protocols via rRNA depletion, RNA fragmentation and random priming, reverse transcription, 5’-phosphorylation and dA-tailing of cDNAs, adaptor ligation, and PCR enrichment. Once the quality of each library was confirmed, they were sequenced on an Illumina NovaSeq 6000 (Illumina, San Diego, CA, USA) with 150-bp paired-ends. Raw sequence reads were filtered to remove possible adapter sequences and nucleotides with poor quality using Trimmomatic v.0.36 [105]. The trimmed reads were subsequently mapped to the H. pylori strain 26695 reference genome NC_000915.1 available on NCBI, by using the Bowtie2 aligner v.2.2.6 [106]. Unique gene hit counts were calculated by using featureCounts from the Subread package v.1.5.2. Only unique reads that fell within the gene regions were counted. Using DESeq2 [108], a comparison of the gene expression between the control and treated groups of samples was performed. The Wald test was used to generate p-values and log2 fold changes. Genes with an adjusted p-value < 0.05 and absolute log2 fold change >1 were considered as differentially expressed genes (DEGs) for each comparison. The RNA-Seq data generated in this study have been deposited in ArrayExpress with the accession number E-MTAB-14255.
smiles,measurement,setting,value
"NC(=NOC(=O)Nc1ccc(Cl)cc1)c1csc([N+](=O)[O-])c1 [Ligand V, N′-{[(4-chloroanilino)carbonyl]}oxy-5-nitrothiophene-3-carboximidamide]",log2 Fold Change HP0986,"gene HP0986, lethal concentrations of V vs control",0.434
same,log2 Fold Change,gene HP0987,-0.503
same,log2 Fold Change HP0989,"gene HP0989, lethal concentrations of V vs control",0.305
same,log2 Fold Change HP0993,"gene HP0993, lethal concentrations of V vs control",0.415
same,log2 Fold Change HP0995,"gene HP0995, lethal concentrations of V vs control",0.339
same,log2 Fold Change HP0997,"gene HP0997, lethal concentrations of V vs control",0.344
same,log2 Fold Change HP1008,"gene HP1008, lethal concentrations of V vs control",0.406
same,log2 Fold Change HP1023,"gene HP1023, lethal concentrations of V vs control",0.173
same,log2 Fold Change HP1030,"gene HP1030, lethal concentrations of V vs control",0.181
same,log2 Fold Change HP1036,"gene HP1036, lethal concentrations of V vs control",0.464
same,log2 Fold Change,gene HP1042,-0.579
same,log2 Fold Change HP1057,"gene HP1057, lethal concentrations of V vs control",0.304
same,log2 Fold Change,gene HP1067,-0.595
same,log2 Fold Change HP1080,"gene HP1080, lethal concentrations of V vs control",0.450
same,log2 Fold Change HP1083,"gene HP1083, lethal concentrations of V vs control",0.380
same,log2 Fold Change HP1088,"gene HP1088, lethal concentrations of V vs control",0.367
same,log2 Fold Change HP1091,"gene HP1091, lethal concentrations of V vs control",0.326
same,log2 Fold Change HP1094,"gene HP1094, lethal concentrations of V vs control",0.330
same,log2 Fold Change HP1095,"gene HP1095, lethal concentrations of V vs control",0.451
same,log2 Fold Change HP1096,"gene HP1096, lethal concentrations of V vs control",0.362
same,log2 Fold Change HP1098,"gene HP1098, lethal concentrations of V vs control",0.266
same,log2 Fold Change,gene HP1102,1.324
same,log2 Fold Change,gene HP1112,-0.531
same,log2 Fold Change HP1113,"gene HP1113, lethal concentrations of V vs control",0.235
same,log2 Fold Change HP1115,"gene HP1115, lethal concentrations of V vs control",0.309
same,log2 Fold Change HP1120,"gene HP1120, lethal concentrations of V vs control",0.296
same,log2 Fold Change HP1122,"gene HP1122, lethal concentrations of V vs control",0.364
same,log2 Fold Change HP1125,"gene HP1125, lethal concentrations of V vs control",0.243
same,log2 Fold Change HP1132,"gene HP1132, lethal concentrations of V vs control",0.451
same,log2 Fold Change HP1139,"gene HP1139, lethal concentrations of V vs control",0.341
same,log2 Fold Change HP1140,"gene HP1140, lethal concentrations of V vs control",0.260
same,log2 Fold Change HP1142,"gene HP1142, lethal concentrations of V vs control",0.424
same,log2 Fold Change HP1154,"gene HP1154, lethal concentrations of V vs control",0.259
same,log2 Fold Change HP1157,"gene HP1157, lethal concentrations of V vs control",0.263
same,log2 Fold Change,gene HP1159,-0.549
same,log2 Fold Change HP1164,"gene HP1164, lethal concentrations of V vs control",0.208
same,log2 Fold Change HP1165,"gene HP1165, lethal concentrations of V vs control",0.470
same,log2 Fold Change HP1171,"gene HP1171, lethal concentrations of V vs control",0.290
same,log2 Fold Change,gene HP1184,-0.471
same,log2 Fold Change HP1193,"gene HP1193, lethal concentrations of V vs control",0.413
same,log2 Fold Change,gene HP1196,-0.491
same,log2 Fold Change HP1218,"gene HP1218, lethal concentrations of V vs control",0.194
same,log2 Fold Change HP1221,"gene HP1221, lethal concentrations of V vs control",0.426
same,log2 Fold Change HP1222,"gene HP1222, lethal concentrations of V vs control",0.384
same,log2 Fold Change HP1226,"gene HP1226, lethal concentrations of V vs control",0.186
same,log2 Fold Change,gene HP1232,-0.511
same,log2 Fold Change HP1234,"gene HP1234, lethal concentrations of V vs control",0.340
same,log2 Fold Change,gene HP1243,1.352
same,log2 Fold Change HP1251,"gene HP1251, lethal concentrations of V vs control",0.458
same,log2 Fold Change,gene HP1258,-0.491
same,log2 Fold Change HP1261,"gene HP1261, lethal concentrations of V vs control",0.181
same,log2 Fold Change HP1262,"gene HP1262, lethal concentrations of V vs control",0.367
same,log2 Fold Change HP1264,"gene HP1264, lethal concentrations of V vs control",0.389
same,log2 Fold Change HP1267,"gene HP1267, lethal concentrations of V vs control",0.146
same,log2 Fold Change,gene HP1270,-0.476
same,log2 Fold Change HP1285,"gene HP1285, lethal concentrations of V vs control",0.248
same,log2 Fold Change HP1322,"gene HP1322, lethal concentrations of V vs control",0.318
same,log2 Fold Change HP1337,"gene HP1337, lethal concentrations of V vs control",0.239
same,log2 Fold Change,gene HP1343,-0.493
same,log2 Fold Change,gene HP1346,-0.518
same,log2 Fold Change HP1352,"gene HP1352, lethal concentrations of V vs control",0.160
same,log2 Fold Change,gene HP1355,-0.601
same,log2 Fold Change,gene HP1357,-0.489
same,log2 Fold Change HP1358,"gene HP1358, lethal concentrations of V vs control",0.185
same,log2 Fold Change HP1359,"gene HP1359, lethal concentrations of V vs control",0.220
same,log2 Fold Change HP1361,"gene HP1361, lethal concentrations of V vs control",0.344
same,log2 Fold Change HP1363,"gene HP1363, lethal concentrations of V vs control",0.291
same,log2 Fold Change HP1366,"gene HP1366, lethal concentrations of V vs control",0.348
same,log2 Fold Change HP1371,"gene HP1371, lethal concentrations of V vs control",0.280
same,log2 Fold Change HP1377,"gene HP1377, lethal concentrations of V vs control",0.474
same,log2 Fold Change HP1380,"gene HP1380, lethal concentrations of V vs control",0.326
same,log2 Fold Change,gene HP1381,-0.548
same,log2 Fold Change HP1385,"gene HP1385, lethal concentrations of V vs control",0.232
same,log2 Fold Change HP1404,"gene HP1404, lethal concentrations of V vs control",0.393
same,log2 Fold Change,gene HP1411,1.307
same,log2 Fold Change HP1433,"gene HP1433, lethal concentrations of V vs control",0.238
same,log2 Fold Change HP1434,"gene HP1434, lethal concentrations of V vs control",0.407
same,log2 Fold Change HP1435,"gene HP1435, lethal concentrations of V vs control",0.348
same,log2 Fold Change HP1436,"gene HP1436, lethal concentrations of V vs control",0.297
same,log2 Fold Change HP1438,"gene HP1438, lethal concentrations of V vs control",0.319
same,log2 Fold Change,gene HP1442,-0.497
